Experimental findings from PubChem BioAssay AID180 (DTP/NCI, 2004) are described below.

The test has as its system BDF1 mice, Adenocarcinoma 755 s.c., tumor weight T/C. The test can be described thus: NCI In Vivo Anticancer Drug Screen. Data for tumor model Adenocarcinoma 755 (subcutaneous) in B6D2F1 (BDF1) mice. To be noted: endpoint: mean tumor weight, higher = larger tumour. On the procedure: The antitumor activity of compounds was measured in mice bearing transplantable tumors. Survival or tumor size were measured and the results are expressed as the measurement made in the treated group (T) divided by the measurement made in the vehicle treated control group (C). The tumor model used in this assay is Adenocarcinoma 755 (subcutaneous) in B6D2F1 (BDF1) mice

Setting [1] is: dose: 25.0 mg/kg/injection, schedule: Q01DX011 (ip), vehicle: carboxymethylcellulose (CMC).
[2] abbreviates: dose: 50.0 mg/kg/injection, schedule: Q01DX011 (ip), vehicle: carboxymethylcellulose (CMC).
Where [3] appears, read: dose: 50.0 mg/kg/injection, schedule: Q01DX011 (ip), vehicle: other.
Where [4] appears, read: dose: 15.0 mg/kg/injection, schedule: Q01DX011 (ip), vehicle: carboxymethylcellulose (CMC).
Where [5] appears, read: dose: 30.0 mg/kg/injection, schedule: Q01DX011 (ip), vehicle: carboxymethylcellulose (CMC).
Setting [6] is: dose: 225.0 mg/kg/injection, schedule: Q01DX011 (ip), vehicle: carboxymethylcellulose (CMC).

Where “and” joins values, the source holds several entries; their conditions need not be identical. Equal entries are not always repeated.

As a reminder, the T/C is the result in the treated group divided by that in the control group, in per cent. As for `OB(O)O`, the T/C is, setting by setting: (dose: 500.0 mg/kg/injection, schedule: Q#A X022 (oral), vehicle: water) 39 % of control and 45 % of control; (dose: 750.0 mg/kg/injection, schedule: Q#A X022 (oral), vehicle: water) 16 % of control; (dose: 1000.0 mg/kg/injection, schedule: Q#A X022 (oral), vehicle: water) 9 % of control.
For `CCC1OCCN1C(C)C` (configuration not stated), the T/C runs as follows: (dose: 12.0 mg/kg/injection, schedule: Q01DX011 (ip), vehicle: other) 118 % of control; under setting [1], 57 % of control; (dose: 25.0 mg/kg/injection, schedule: Q01DX011 (ip), vehicle: other) 109 % of control; (dose: 25.0 mg/kg/injection, schedule: Q01DX011 (ip), vehicle: saline) 84 % of control; under setting [2], 33 % of control; under setting [3], 223 % of control. The T/C (dose: 50.0 mg/kg/injection, schedule: Q01DX011 (ip), vehicle: saline) was 29 % of control.
Take `CCCCn1cnc2c(SC3CCCC3)ncnc21`: the T/C by setting is: under setting [1], 38 % of control; under setting [2], 13 % of control; (dose: 100.0 mg/kg/injection, schedule: Q01DX011 (ip), vehicle: carboxymethylcellulose (CMC)) 4 % of control; (dose: 200.0 mg/kg/injection, schedule: Q01DX011 (ip), vehicle: carboxymethylcellulose (CMC)) 3 % of control.
In the case of `Cc1cc2nc3c(=O)[nH]c(=O)nc-3n(CCO)c2cc1C`, the T/C reads like this: (dose: 800.0 mg/kg/injection, schedule: Q01DX011 (ip), vehicle: methylcellulose (MC)) 98 % of control; (dose: 1000.0 mg/kg/injection, schedule: Q01DX011 (ip), vehicle: methylcellulose (MC)) 95 % of control.
Consider `S=c1nc[nH]c2c1ncn2C1CCCS1` (configuration not stated), for which the T/C is 114 % of control (dose: 75.0 mg/kg/injection, schedule: Q01DX011 (ip), vehicle: methylcellulose (MC)) and 43 % of control (dose: 225.0 mg/kg/injection, schedule: Q01DX011 (ip), vehicle: methylcellulose (MC)).
Turning to `N#Cc1cn(C2OC(CO)C(O)C2O)c2ncnc(N)c12` (configuration not stated), the T/C (dose: 0.15 mg/kg/injection, schedule: Q01DX011 (ip), vehicle: carboxymethylcellulose (CMC)) was 72 % of control.
`CC(=O)NC1=C(N2CC2)C(=O)C(NC(C)=O)=C(N2CC2)C1=O`: the T/C is, setting by setting: (dose: 0.02 mg/kg/injection, schedule: Q01DX011 (ip), vehicle: carboxymethylcellulose (CMC)) 91 % of control; (dose: 0.02 mg/kg/injection, schedule: Q01DX011 (ip), vehicle: methylcellulose (MC)) 71 % of control; (dose: 0.03 mg/kg/injection, schedule: Q01DX011 (ip), vehicle: carboxymethylcellulose (CMC)) 65 % of control; (dose: 0.05 mg/kg/injection, schedule: Q01DX011 (ip), vehicle: methylcellulose (MC)) 69 % of control; (dose: 0.06 mg/kg/injection, schedule: Q01DX011 (ip), vehicle: carboxymethylcellulose (CMC)) 51 % of control; (dose: 0.1 mg/kg/injection, schedule: Q01DX011 (ip), vehicle: methylcellulose (MC)) 50 % of control. The T/C (dose: 0.12 mg/kg/injection, schedule: Q01DX011 (ip), vehicle: carboxymethylcellulose (CMC)) was 21 % of control.
Turning to `O=C1Cc2ccccc2C(=O)N1`, the T/C is 79 % of control (dose: 7.5 mg/kg/injection, schedule: Q01DX011 (ip), vehicle: carboxymethylcellulose (CMC)); 104 % of control under setting [4]; 107 % of control under setting [5]; 56 % of control (dose: 60.0 mg/kg/injection, schedule: Q01DX011 (ip), vehicle: carboxymethylcellulose (CMC)).
Take `C=C(Br)CN(C)CCO`: the T/C under setting [3] was 85 % of control; the T/C (dose: 100.0 mg/kg/injection, schedule: Q01DX011 (ip), vehicle: other) was 76 % of control; the T/C (dose: 200.0 mg/kg/injection, schedule: Q01DX011 (ip), vehicle: other) is 53 % of control.
Regarding `CC(=O)OCC(=O)[C@@]1(O)CC[C@H]2[C@@H]3CCC4=CC(=O)C=C[C@]4(C)[C@H]3C(=O)C[C@@]21C`, the T/C is, setting by setting: (dose: 0.9 mg/kg/injection, schedule: Q01DX011 (sc), vehicle: steriod suspending solution) 68 % of control; (dose: 1.7 mg/kg/injection, schedule: Q01DX011 (sc), vehicle: steriod suspending solution) 72 % of control; (dose: 3.5 mg/kg/injection, schedule: Q01DX011 (sc), vehicle: steriod suspending solution) 76 % of control; (dose: 3.7 mg/kg/injection, schedule: Q01DX011 (sc), vehicle: steriod suspending solution) 64 % of control; (dose: 7.0 mg/kg/injection, schedule: Q01DX011 (sc), vehicle: steriod suspending solution) 106 % of control; (dose: 7.1 mg/kg/injection, schedule: Q01DX011 (sc), vehicle: steriod suspending solution) 39 % of control. The T/C by setting is: (dose: 7.5 mg/kg/injection, schedule: Q01DX011 (sc), vehicle: steriod suspending solution) 50 % of control; (dose: 14.0 mg/kg/injection, schedule: Q01DX011 (sc), vehicle: steriod suspending solution) 52 % of control; (dose: 14.3 mg/kg/injection, schedule: Q01DX011 (sc), vehicle: steriod suspending solution) 44 % of control; (dose: 15.0 mg/kg/injection, schedule: Q01DX011 (sc), vehicle: steriod suspending solution) 27 % of control and 33 % of control; (dose: 28.7 mg/kg/injection, schedule: Q01DX011 (sc), vehicle: steriod suspending solution) 19 % of control and 26 % of control and 27 % of control; (dose: 30.0 mg/kg/injection, schedule: Q01DX011 (sc), vehicle: steriod suspending solution) 13 % of control and 16 % of control. For the same compound, the T/C was 3 % of control and 11 % of control and 17 % of control (dose: 57.5 mg/kg/injection, schedule: Q01DX011 (sc), vehicle: steriod suspending solution); 12 % of control (dose: 60.0 mg/kg/injection, schedule: Q01DX011 (sc), vehicle: steriod suspending solution); 5 % of control (dose: 115.0 mg/kg/injection, schedule: Q01DX011 (sc), vehicle: steriod suspending solution).
With `CN(C)[C@@H]1C(=O)C(C(=O)NCNc2nc(=S)c3[nH]cnc3[nH]2)=C(O)[C@@]2(O)C(=O)C3=C(O)c4c(O)cccc4[C@@](C)(O)[C@H]3C[C@@H]12`, the T/C was 52 % of control (dose: 4.0 mg/kg/injection, schedule: Q01DX011 (ip), vehicle: carboxymethylcellulose (CMC)); 26 % of control (dose: 8.0 mg/kg/injection, schedule: Q01DX011 (ip), vehicle: carboxymethylcellulose (CMC)); 2 % of control under setting [4]; 1 % of control under setting [5]; 1 % of control under setting [2].
`COc1cc(-c2ccc(N=Nc3c(O)ccc4ccccc34)c(OC)c2)ccc1N=Nc1ccc2c(S(=O)(=O)O)cc(S(=O)(=O)O)c(N)c2c1O`: the T/C (dose: 62.0 mg/kg/injection, schedule: Q01DX011 (ip), vehicle: carboxymethylcellulose (CMC)) was 63 % of control and 75 % of control; the T/C (dose: 112.0 mg/kg/injection, schedule: Q01DX011 (ip), vehicle: carboxymethylcellulose (CMC)) was 60 % of control and 79 % of control; the T/C under setting [6] was 39 % of control and 64 % of control; the T/C (dose: 450.0 mg/kg/injection, schedule: Q01DX011 (ip), vehicle: carboxymethylcellulose (CMC)) was 29 % of control.
As for `O=Cc1ccccc1`, the T/C (dose: 3.12 mg/kg/injection, schedule: Q01DX011 (ip), vehicle: Klucel (hydroxypropylcellulose) (HPC)) is 80 % of control; the T/C (dose: 6.25 mg/kg/injection, schedule: Q01DX011 (ip), vehicle: Klucel (hydroxypropylcellulose) (HPC)) was 52 % of control; the T/C (dose: 12.5 mg/kg/injection, schedule: Q01DX011 (ip), vehicle: Klucel (hydroxypropylcellulose) (HPC)) is 72 % of control; the T/C (dose: 25.0 mg/kg/injection, schedule: Q01DX011 (ip), vehicle: Klucel (hydroxypropylcellulose) (HPC)) was 109 % of control; the T/C (dose: 50.0 mg/kg/injection, schedule: Q01DX011 (ip), vehicle: Klucel (hydroxypropylcellulose) (HPC)) is 106 % of control; the T/C (dose: 100.0 mg/kg/injection, schedule: Q01DX011 (ip), vehicle: Klucel (hydroxypropylcellulose) (HPC)) was 80 % of control. The T/C was 55 % of control (dose: 200.0 mg/kg/injection, schedule: Q01DX011 (ip), vehicle: Klucel (hydroxypropylcellulose) (HPC)) and 56 % of control (dose: 400.0 mg/kg/injection, schedule: Q01DX011 (ip), vehicle: Klucel (hydroxypropylcellulose) (HPC)).
Take `Cn1c(=O)c2c(ncn2CCCO)n(C)c1=O`: the T/C is, setting by setting: (dose: 75.0 mg/kg/injection, schedule: Q01DX011 (ip), vehicle: carboxymethylcellulose (CMC)) 61 % of control; under setting [6], 65 % of control.
